Test results as given in patent US10072249B2, “Method of inducing kidney from pluripotent stem cells” (NATIONAL UNIVERSITY CORPORATION KUMAMOTO UNIVERSITY, priority 2013, dated 2018).

Legend:
[1] = system: Osr1-GFP+ cells from the caudal part of E9.5 embryos; assay: Culture of sorted E9.5 posterior Osr1-GFP+ cell aggregates, then colony-formation assay on Wnt4 feeder cells; format: cell-based, mouse
Method: In vitro colony-formation assays were performed as described previously (Osafune et al., 2006). Briefly, progenitor cells were sorted by a FACS Aria II (Becton Dickinson) and plated onto NIH3T3 cells stably expressing Wnt4 at a low density (1,250-10,000 cells/well of 6-well plates). The cells were then cultured in DMEM/F12 containing 5% knockout serum replacement (Invitrogen), 10 μg/ml insulin, 6.7 μg/1 sodium selenite, 5.5 μg/ml transferrin, 1×10^−7 mol/l dexamethasone, 10 mmol/l nicotinamide, 2 mmol/l L-glutamine, 50 μmol/l 2-mercaptoethanol, 5 mmol/l HEPES and penicillin/streptomycin.
For embryonic tissue cultures at E8.5, the presomitic regions of 6-10 somite-stage embryos were harvested and T-GFP+ cells were sorted by FACS. The sorted cells were aggregated at 7,000 cells per aggregate in 96-well low-cell-binding plates and cultured in serum-free chemically-defined medium. In the embryonic tissue cultures at E9.5, the posterior regions from the 23rd somite region of 22-26 somite-stage embryos were harvested and Osr1-GFP+ or Wt1-GFP+ cells were sorted by FACS. The sorted cells were aggregated at 10,000 cells per aggregate in 96-well low-cell-binding plates and cultured in serum-free chemically-defined medium.
Induced cell aggregates from embryonic tissues or ES cells were dissociated by incubation with 0.25% trypsin for 5 min. After blocking in normal mouse serum (Thermo Scientific), cell surface marker staining was carried out in buffer comprising 1% bovine serum albumin, 1×HBSS and 0.035% NaHCO3. Data were analyzed with FlowJo software (Treestar).
RNA was isolated using an RNeasy Plus Micro Kit (Qiagen), and then reverse-transcribed with random primers and Superscript III (Invitrogen). Quantitative PCR was carried out using a Real-Time PCR System (Applied Biosystems) and Thunderbird SYBR qPCR Mix (Toyobo). All samples were normalized by the β-actin expression using the relative standard curve method.
To test the hypothesis, Osr1-GFP+ cells from the caudal part of E9.5 embryos were sorted, and were plated into low-cell-binding plates in the presence of the Rho kinase inhibitor Y27632, which supports cell survival. The cells spontaneously re-aggregated and formed spheres within 24 h.

[2] = system: Osr1-GFP ES cell line; assay: Induction of metanephric nephron progenitors from mouse ES cells; format: cell-based; settings: low concentration, 24 h after 2 days of EB formation
Method: Mouse ES cells (Osr1-GFP) were maintained on murine embryonic fibroblasts in DMEM (Invitrogen) supplemented with 15% fetal calf serum, 0.1 mM 2-mercaptoethanol (Nacalai Tesque) and 1,000 U/ml leukemia inhibitory factor (ESGRO). EB3-DsRed cells, gifts from Dr. Hitoshi Niwa (CDB RIKEN), were maintained as reported previously (Usui et al., Am. J. Pathol. 180, 2417-2426, 2012). Before the initiation of differentiation, the ES cells were passaged once onto feeder cell-free gelatin-coated dishes in DMEM (Invitrogen) supplemented with 15% fetal bovine serum, 0.1 mM 2-mercaptoethanol, 1,000 U/ml leukemia inhibitory factor, 3 μM CHIR99021 (Wako) and 1 μM PD0325901 (Wako). ES cell differentiation was carried out in serum-free medium as follows. […]
RNA was isolated using an RNeasy Plus Micro Kit (Qiagen), and then reverse-transcribed with random primers and Superscript III (Invitrogen). Quantitative PCR was carried out using a Real-Time PCR System (Applied Biosystems) and Thunderbird SYBR qPCR Mix (Toyobo). […]

[3] = exogenous addition to aggregate culture

Cc1c[nH]c(-c2cnc(NCCNc3ccc(C#N)cn3)nc2-c2ccc(Cl)cc2Cl)n1 [CHIR99021, 6-[[2-[[4-(2,4-dichlorophenyl)-5-(4-methyl-1H-imidazol-2-yl)-2-pyrimidinyl]amino]ethyl]amino]nicotinonitrile]
induction of colony-forming progenitors and nephric gene expressions ([1]; high concentrations, 3 or 10 μM): inhibitory | colony formation ([1]; low concentration, 1 μM): slightly improved

C[C@@H](N)[C@H]1CC[C@H](C(=O)Nc2ccncc2)CC1 [Y27632]
expressions of Pax2, Six2 and Gdnf compared with the starting point ([1]; 48 h of culture of aggregates in low-cell-binding plates): more than 10 fold | Osr1+/Itga8+/Pdgfra− population (FACS) ([1]; cultured aggregates): 10.0±0.01 % of the total cells

B1: activin: human activin A growth factor (R&D Systems) (protein, UniProt P08476 311-426, looked up)
Inhibin beta A chain: GLECDGKVNICCKKQFFVSFKDIGWNDWIIAPSGYHANYCEGECPSHIAGTSGSSLSFHSTVINHYRMRGHSPFANLKSCCVPTKLRPMSMLYYDDGQNIIKKDIQNMIVEECGCS
modifications: Inhibin beta A chain
expression of the epiblast marker Fgf5 [2]: induced transient expression | induction of colony-forming progenitors and nephric gene expressions [1, 3]: inhibitory

B2: Bmp4: human Bmp4 growth factor (R&D Systems) (protein, UniProt P12644 293-408, looked up)
Bone morphogenetic protein 4: SPKHHSQRARKKNKNCRRHSLYVDFSDVGWNDWIVAPPGYQAFYCHGDCPFPLADHLNSTNHAIVQTLVNSVNSSIPKACCVPTELSAISMLYLDEYDKVVLKNYQEMVVEGCGCR
induction of colony-forming progenitors and nephric gene expressions [1, 3]: inhibitory
